Reference: patent publication US12479847B2 (DANA-FARBER CANCER INSTITUTE, INC., priority 2019, dated 2025)

Tests used:
Assay in all cases: KINOMEscan (ScanMAX) kinase profiling
Assay type in all cases: binding
panel of 468 kinases [1] = molecular target: T1, panel of 468 kinases (Homo sapiens, UniProt Q96BR1); conditions: SGK3; 1 μM; read-out: % control
T1 construct: purchased KINOMEscan (ScanMAX) service
T1 sequence (Q96BR1 1-496): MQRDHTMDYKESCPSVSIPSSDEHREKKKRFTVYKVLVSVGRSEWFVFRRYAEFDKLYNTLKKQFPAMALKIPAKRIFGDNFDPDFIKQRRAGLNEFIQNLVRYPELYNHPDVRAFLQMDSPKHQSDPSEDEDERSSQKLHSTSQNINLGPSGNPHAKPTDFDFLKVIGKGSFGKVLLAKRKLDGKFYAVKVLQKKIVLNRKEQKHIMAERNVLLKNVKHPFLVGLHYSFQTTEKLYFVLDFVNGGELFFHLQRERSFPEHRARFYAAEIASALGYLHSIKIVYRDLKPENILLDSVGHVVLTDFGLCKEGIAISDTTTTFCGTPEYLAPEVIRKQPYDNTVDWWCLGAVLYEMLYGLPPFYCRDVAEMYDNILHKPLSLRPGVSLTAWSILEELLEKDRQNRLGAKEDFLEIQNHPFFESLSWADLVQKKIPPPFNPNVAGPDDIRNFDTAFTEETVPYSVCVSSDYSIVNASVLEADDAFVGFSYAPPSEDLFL

panel of 468 kinases [2] = molecular target: T2, panel of 468 kinases (Homo sapiens, UniProt Q15303); conditions: ERBB4; 1 μM; read-out: % control
T2 construct: purchased KINOMEscan (ScanMAX) service

panel of 468 kinases [3] = molecular target: T3, panel of 468 kinases (Homo sapiens, UniProt P25098); conditions: GRK2; 1 μM; read-out: % control
T3 construct: purchased KINOMEscan (ScanMAX) service
T3 sequence (P25098 1-689): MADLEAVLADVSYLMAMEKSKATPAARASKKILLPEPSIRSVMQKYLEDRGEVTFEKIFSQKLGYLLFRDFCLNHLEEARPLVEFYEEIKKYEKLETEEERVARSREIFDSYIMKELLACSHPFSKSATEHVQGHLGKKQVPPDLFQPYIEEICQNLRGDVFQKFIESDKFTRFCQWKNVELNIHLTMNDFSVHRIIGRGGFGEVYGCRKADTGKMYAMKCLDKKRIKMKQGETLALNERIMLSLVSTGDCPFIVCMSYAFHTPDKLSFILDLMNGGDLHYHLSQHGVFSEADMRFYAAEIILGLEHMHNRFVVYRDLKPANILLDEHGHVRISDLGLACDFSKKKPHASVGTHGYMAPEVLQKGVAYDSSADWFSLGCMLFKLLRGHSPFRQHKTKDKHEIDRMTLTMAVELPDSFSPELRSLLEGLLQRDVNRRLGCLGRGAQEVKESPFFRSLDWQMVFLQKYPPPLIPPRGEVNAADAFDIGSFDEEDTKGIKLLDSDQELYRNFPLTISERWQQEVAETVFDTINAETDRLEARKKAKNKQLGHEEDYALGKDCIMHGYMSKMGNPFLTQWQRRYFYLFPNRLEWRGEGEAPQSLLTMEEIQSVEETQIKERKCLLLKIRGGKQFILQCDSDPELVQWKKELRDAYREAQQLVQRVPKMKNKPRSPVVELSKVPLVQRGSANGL

panel of 468 kinases [4] = molecular target: T4, panel of 468 kinases (Homo sapiens, UniProt Q04759); conditions: PRKCQ; 1 μM; read-out: % control
T4 construct: purchased KINOMEscan (ScanMAX) service

panel of 468 kinases [5] = molecular target: T5, panel of 468 kinases (Homo sapiens, UniProt P36888, N841I); conditions: FLT3(N841I); 1 μM; read-out: % control
T5 construct: purchased KINOMEscan (ScanMAX) service
T5 sequence (P36888 27-993 N841I): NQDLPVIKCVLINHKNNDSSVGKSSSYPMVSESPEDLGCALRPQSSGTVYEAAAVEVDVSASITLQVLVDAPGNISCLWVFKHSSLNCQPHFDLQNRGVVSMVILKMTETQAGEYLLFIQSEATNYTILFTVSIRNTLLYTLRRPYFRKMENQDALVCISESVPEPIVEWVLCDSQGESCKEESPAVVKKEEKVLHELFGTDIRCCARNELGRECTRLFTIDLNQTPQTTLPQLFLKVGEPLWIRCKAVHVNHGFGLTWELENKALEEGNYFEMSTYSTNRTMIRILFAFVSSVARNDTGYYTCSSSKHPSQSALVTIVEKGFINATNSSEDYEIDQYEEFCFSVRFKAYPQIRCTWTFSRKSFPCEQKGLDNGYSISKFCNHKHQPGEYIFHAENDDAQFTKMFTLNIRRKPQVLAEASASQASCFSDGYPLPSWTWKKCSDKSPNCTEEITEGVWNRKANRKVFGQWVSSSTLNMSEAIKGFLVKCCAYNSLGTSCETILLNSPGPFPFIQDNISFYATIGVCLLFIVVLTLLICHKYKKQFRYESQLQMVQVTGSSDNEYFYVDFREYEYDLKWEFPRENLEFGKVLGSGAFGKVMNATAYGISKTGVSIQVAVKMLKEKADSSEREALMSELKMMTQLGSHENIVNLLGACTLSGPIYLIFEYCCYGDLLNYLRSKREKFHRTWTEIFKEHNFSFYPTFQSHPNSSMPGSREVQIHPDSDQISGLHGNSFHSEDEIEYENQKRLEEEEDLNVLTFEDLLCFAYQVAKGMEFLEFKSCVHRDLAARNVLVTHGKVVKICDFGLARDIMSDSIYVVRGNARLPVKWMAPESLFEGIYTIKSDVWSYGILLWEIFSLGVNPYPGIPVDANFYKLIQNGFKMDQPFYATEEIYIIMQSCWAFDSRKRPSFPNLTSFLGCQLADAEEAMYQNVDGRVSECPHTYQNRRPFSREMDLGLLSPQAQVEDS

T2 sequence (Q15303 26-1308): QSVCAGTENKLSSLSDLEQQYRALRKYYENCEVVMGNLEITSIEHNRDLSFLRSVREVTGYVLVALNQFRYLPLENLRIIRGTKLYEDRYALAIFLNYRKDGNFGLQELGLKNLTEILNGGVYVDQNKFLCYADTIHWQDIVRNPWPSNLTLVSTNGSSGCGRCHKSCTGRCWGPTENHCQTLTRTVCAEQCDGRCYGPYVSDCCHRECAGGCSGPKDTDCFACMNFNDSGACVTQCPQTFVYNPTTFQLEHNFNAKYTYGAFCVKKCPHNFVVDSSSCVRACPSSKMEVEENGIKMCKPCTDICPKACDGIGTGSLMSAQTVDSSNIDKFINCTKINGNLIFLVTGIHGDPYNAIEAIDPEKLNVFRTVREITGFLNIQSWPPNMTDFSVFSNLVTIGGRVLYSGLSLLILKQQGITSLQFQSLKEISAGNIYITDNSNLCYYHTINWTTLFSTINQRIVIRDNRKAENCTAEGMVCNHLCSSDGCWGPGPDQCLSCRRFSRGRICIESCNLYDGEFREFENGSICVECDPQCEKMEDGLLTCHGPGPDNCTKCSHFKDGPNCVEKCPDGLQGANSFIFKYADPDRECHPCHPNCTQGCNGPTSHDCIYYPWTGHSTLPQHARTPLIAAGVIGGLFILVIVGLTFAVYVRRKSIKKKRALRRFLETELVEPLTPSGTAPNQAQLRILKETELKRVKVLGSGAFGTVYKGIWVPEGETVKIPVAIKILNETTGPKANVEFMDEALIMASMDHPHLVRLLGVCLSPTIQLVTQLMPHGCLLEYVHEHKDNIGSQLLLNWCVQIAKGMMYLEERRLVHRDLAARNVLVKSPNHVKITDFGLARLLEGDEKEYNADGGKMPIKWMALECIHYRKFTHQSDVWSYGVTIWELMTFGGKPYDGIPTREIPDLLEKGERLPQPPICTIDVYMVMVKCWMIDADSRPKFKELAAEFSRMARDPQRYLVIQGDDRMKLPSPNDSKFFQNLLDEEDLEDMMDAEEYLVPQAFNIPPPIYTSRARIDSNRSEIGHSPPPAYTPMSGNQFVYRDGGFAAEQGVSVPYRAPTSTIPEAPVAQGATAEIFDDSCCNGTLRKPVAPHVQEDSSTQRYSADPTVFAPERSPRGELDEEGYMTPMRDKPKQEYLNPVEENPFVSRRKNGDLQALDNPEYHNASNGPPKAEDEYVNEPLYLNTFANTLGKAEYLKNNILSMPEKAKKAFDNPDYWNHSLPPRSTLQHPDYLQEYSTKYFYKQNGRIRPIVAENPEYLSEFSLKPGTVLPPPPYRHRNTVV
T4 sequence (Q04759 whole entry): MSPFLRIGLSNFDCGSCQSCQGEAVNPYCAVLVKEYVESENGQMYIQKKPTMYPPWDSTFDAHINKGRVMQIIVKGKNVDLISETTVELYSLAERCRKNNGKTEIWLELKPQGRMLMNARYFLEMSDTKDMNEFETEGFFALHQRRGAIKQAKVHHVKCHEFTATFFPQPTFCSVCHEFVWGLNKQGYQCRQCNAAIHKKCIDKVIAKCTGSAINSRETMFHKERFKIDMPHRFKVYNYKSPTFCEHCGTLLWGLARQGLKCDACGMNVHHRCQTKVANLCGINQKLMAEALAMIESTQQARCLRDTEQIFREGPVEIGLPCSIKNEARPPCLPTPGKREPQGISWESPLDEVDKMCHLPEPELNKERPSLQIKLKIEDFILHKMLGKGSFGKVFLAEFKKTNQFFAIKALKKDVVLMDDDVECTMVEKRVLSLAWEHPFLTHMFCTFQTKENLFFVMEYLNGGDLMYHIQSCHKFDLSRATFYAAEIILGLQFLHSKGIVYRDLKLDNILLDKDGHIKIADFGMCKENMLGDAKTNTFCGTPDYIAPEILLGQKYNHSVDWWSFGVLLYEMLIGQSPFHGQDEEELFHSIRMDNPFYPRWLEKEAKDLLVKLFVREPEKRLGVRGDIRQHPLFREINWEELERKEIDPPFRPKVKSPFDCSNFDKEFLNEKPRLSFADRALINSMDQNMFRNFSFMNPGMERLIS

Row | SMILES | remaining binding at 1 µM (panel of 468 kinases [1]) [%] | remaining binding at 1 µM (panel of 468 kinases [2]) [%] | remaining binding at 1 µM (panel of 468 kinases [3]) [%] | remaining binding at 1 µM (panel of 468 kinases [4]) [%] | remaining binding at 1 µM (panel of 468 kinases [5]) [%]
1 | CNc1nc(Nc2ccc(C(=O)N3CCC(N4CCOCC4)CC3)c3c2OCO3)nc2[nH]cc(Cl)c12 [Compound 75, (7-((5-chloro-4-(methylamino)-7H-pyrrolo[2,3-d]pyrimidin-2-yl)amino)benzo[d][1,3]dioxol-4-yl)(4-morpholinopiperidin-1-yl)methanone] | 32 | 90 | 100 | 100 | 65
2 | CNc1nc(Nc2ccc(S(=O)(=O)N3CCC(N4CCOCC4)CC3)cc2OC)nc2[nH]cc(Cl)c12 [Compound 12, 5-chloro-N2-(2-methoxy-4-((4-morpholinopiperidin-1-yl)sulfonyl)phenyl)-N4-methyl-7H-pyrrolo[2,3-d]pyrimidine-2,4-diamine] | 76 | 99 | 100 | 100 | 85
3 | CNc1nc(Nc2ccc(P3(=O)CCN(C4CCOCC4)CC3)cc2OC)nc2[nH]cc(Cl)c12 [Compound 77, 4-(4-((5-chloro-4-(methylamino)-7H-pyrrolo[2,3-d]pyrimidin-2-yl)amino)-3-methoxyphenyl)-1-(tetrahydro-2H-pyran-4-yl)-1,4-azaphosphinane 4-oxide] | 78 | 88 | 98 | 95 | 99
